Test results taken from patent US7776882B2, “2-amino-3,4-dihydro-quinoline derivatives useful as inhibitors of β-secretase (BACE)” (priority 2006, dated 2010).

Molecular target: T1, human BACE-1 (Homo sapiens, UniProt P56817)
T1 construct: purchased CEREP (contract assay) 761-B
Experiment: In Vitro BACE Assay run by CEREP (Example 14)
Assay type: biochemical
Conditions: recombinant enzyme, 60 min at 37° C., pH 4.5; for inhibition at 1 µM / % Inhibition 1 μM: 1 μM compound
Description: This assay was run by CEREP (Catalog Ref. 761-B, Referred to SOP No. 1C131; ERMOLIEFF, J., LOY, J. A., KOELSCH, G. and TANG, J., Proteolytic activation of recombinant pro-memapsin 2 (pro-BACE) studied with new fluorogenic substrates, Biochemistry, (2000) Vol. 39, p. 12450).
More specifically the assay, run at 50 μL in a 96 well plate, evaluated the effect of test compound on the activity of the human BACE-1 quantified by measuring the formation of Mca-S-E-V-N-L-NH2 from Mca-S-E-V-N-L-D-A-E-F-R-K(Dnp)-R-R-NH2, using a recombinant enzyme.
The test compound, reference compound or water (control) was added to a buffer containing 0.09 M sodium acetate (pH 4.5) and 0.25 μg BACE-1. Compound interference with the fluorimetric detection method due to autofluorescence was then checked by measurements at the wavelengths defined to evaluate the enzyme activity. Thereafter, the reaction was initiated by adding 7.5 μM of the substrate Mca-S-E-V-N-L-D-A-E-F-R-K(Dnp)-R-R-NH2 and the mixture was incubated for 60 min at 37° C. For control basal measurement, the substrate was omitted from the reaction mixture. Immediately after the incubation, the fluorescence intensity emitted by the reaction product Mca-S-E-V-N-L-NH2 was measured at λex=320 nm and λem=405 nm using a microplate reader (Ultra, Tecan). The standard inhibitory reference compound was OM99-2, which was tested in each experiment at several concentrations to obtain an inhibition curve from which its IC50 value was calculated.

T1 sequence (P56817 46-501): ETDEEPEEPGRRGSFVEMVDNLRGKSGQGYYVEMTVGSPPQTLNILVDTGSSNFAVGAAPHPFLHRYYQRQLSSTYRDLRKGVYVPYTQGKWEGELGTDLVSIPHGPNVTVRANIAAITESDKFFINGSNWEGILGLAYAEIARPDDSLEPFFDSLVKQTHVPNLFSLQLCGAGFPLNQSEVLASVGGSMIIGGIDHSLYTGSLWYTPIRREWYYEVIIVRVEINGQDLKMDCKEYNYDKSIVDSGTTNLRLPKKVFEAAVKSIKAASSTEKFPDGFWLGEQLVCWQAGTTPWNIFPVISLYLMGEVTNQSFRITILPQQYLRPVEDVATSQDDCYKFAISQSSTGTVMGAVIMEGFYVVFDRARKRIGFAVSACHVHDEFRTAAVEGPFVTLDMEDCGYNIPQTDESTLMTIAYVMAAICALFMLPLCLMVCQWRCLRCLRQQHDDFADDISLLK

inhibition at 1 µM [%]	IC50 [nM]	SMILES	also measured
83	320	Nc1nc2ccc(Oc3ccccc3)cc2cc1C(CCC(=O)N(Cc1ccccn1)C1CCCCC1)C1CCOCC1 (centres unmarked) [compound 60]	
83	190	Nc1nc2ccc(Oc3ccccc3)cc2cc1C(CCC(=O)N(CN1CCCC1)C1CCCCC1)C1CCOCC1 (centres unmarked) [compound 64]	
69	850	Nc1nc2ccc(Oc3ccccc3)cc2cc1C(CCC(=O)N(CCN1CCOCC1)C1CCCCC1)C1CCOCC1 (centres unmarked) [compound 65]	
86	470	CC(C)(C)OCCN(C(=O)CCC(c1cc2cc(Oc3ccccc3)ccc2nc1N)C1CCOCC1)C1CCCCC1 (centres unmarked) [compound 66]	
90	410	Nc1nc2ccc(Oc3ccccc3)cc2cc1C(CCC(=O)N(CC1CC1)C1CCCCC1)C1CCOCC1 (centres unmarked) [compound 67]	

Continued, molecule first:

SMILES	inhibition at 1 µM [%]	IC50 [nM]	also measured
CN(CCC(c1cc2cc(Oc3ccccc3)ccc2nc1N)C1CCCCC1)C1CCCCC1 (centres unmarked) [compound 61]			% Inhibition 1 μM: 15%
Nc1nc2ccc(Oc3ccccc3)cc2cc1C(CCC(=O)N(CCO)CC1CC1)C1CCOCC1 (centres unmarked) [compound 68]	41	1500	
CC(C)(C)CN(Cc1ccccn1)C(=O)CCC(c1cc2cc(Oc3ccccc3)ccc2nc1N)C1CCOCC1 (centres unmarked) [compound 69]	69	670	
Cn1ccnc1CN(CCC(C)(C)C)C(=O)CCC(c1cc2cc(Oc3ccccc3)ccc2nc1N)C1CCCCC1 (centres unmarked) [compound 70]			% Inhibition 1 μM (1 µM): 10%
Cn1ccnc1CN(CCC(C)(C)C)C(=O)CCC(c1cc2cc(Oc3ccccc3)ccc2nc1N)C1CCCCC1 (centres unmarked) [compound 71]			% Inhibition 1 μM (1 µM): 73%
Cn1ccnc1CN(CCC(C)(C)C)C(=O)CCC(c1cc2cc(Oc3ccccc3)ccc2nc1N)C1CCCCC1 (centres unmarked) [compound 72]			% Inhibition 1 μM (1 µM): 81%
C=CCCC(c1cc2cc(Oc3ccccc3)ccc2nc1N)C1CCCCC1 (centres unmarked) [compound 509]			% Inhibition 0.3 μM (0.3 μM compound): 11%; % Inhibition 1 μM: −3%
